Experimental data as given in ChEMBL document CHEMBL4177711, “Synthesis, in vitro and in silico evaluation of novel trans-stilbene analogues as potential COX-2 inhibitors” (Bioorg Med Chem, 2018).

Tests used:
[1] = biological target: T1, Prostaglandin G/H synthase 1 (Ovis aries, UniProt P05979); assay: Inhibition of ovine COX1 assessed as reduction in PGF2alpha level using arachidonic acid as substrate preincubated for 10 mins followed by substrate addition by ELISA
T1 sequence (P05979 whole entry): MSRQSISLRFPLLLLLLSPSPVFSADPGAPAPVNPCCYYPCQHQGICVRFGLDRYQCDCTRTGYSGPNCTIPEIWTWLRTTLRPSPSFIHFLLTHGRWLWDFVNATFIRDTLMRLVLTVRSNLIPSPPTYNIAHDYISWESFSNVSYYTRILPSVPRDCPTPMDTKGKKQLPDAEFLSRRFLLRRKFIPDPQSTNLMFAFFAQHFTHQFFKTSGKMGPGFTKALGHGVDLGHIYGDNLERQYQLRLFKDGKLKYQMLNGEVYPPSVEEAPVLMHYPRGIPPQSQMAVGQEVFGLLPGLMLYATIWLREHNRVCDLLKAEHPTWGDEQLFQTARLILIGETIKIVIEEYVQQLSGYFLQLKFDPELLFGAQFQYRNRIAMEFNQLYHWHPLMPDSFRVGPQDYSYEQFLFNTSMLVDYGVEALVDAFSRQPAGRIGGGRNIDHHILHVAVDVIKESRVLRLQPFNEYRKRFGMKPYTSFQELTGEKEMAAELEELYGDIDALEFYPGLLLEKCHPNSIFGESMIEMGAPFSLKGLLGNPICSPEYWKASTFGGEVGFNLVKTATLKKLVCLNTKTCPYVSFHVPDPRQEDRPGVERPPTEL

[2] = biological target: T2, Prostaglandin G/H synthase 2 (Homo sapiens, UniProt P35354); assay: Inhibition of human COX2 assessed as reduction in PGF2alpha level using arachidonic acid as substrate preincubated for 10 mins followed by substrate addition by ELISA
T2 sequence (P35354 whole entry): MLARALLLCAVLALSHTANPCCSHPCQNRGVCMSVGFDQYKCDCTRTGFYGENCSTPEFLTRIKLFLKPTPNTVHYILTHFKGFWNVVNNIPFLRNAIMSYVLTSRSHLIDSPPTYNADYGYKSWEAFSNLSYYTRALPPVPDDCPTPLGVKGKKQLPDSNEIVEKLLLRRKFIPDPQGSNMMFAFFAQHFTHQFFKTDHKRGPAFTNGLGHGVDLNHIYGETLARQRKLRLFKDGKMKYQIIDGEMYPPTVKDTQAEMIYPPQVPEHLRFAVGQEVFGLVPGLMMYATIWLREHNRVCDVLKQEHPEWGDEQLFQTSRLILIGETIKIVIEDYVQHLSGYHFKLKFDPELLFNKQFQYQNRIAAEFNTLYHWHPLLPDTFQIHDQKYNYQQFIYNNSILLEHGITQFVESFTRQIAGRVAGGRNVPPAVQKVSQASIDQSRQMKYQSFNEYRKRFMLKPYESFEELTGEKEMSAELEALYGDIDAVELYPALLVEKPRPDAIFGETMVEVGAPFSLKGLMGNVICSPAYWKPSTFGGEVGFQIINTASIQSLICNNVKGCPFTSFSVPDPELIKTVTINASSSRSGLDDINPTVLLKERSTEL

[3] = Selectivity index, ratio of IC50 for ovine COX1 to IC50 for human COX2
[4] = biological target: T3, Prostaglandin G/H synthase 2 (Homo sapiens) (UniProt P35354); assay: Inhibition of COX2 in human MCF7 cells assessed as reduction in PGE2 level after 72 hrs by ELISA; type: cell-based
T3 sequence (whole entry): T2 sequence (P35354 whole entry)

[5] = biological target: T3, Prostaglandin G/H synthase 2 (Homo sapiens); assay: Inhibition of COX2 in human MCF7 cells assessed as reduction in PGE2 level at 6.25 uM after 72 hrs by ELISA relative to control; type: cell-based
[6] = biological target: T3, Prostaglandin G/H synthase 2 (Homo sapiens); assay: Inhibition of COX2 in human MCF7 cells assessed as reduction in PGE2 level at 12.5 uM after 72 hrs by ELISA relative to control; type: cell-based
[7] = Solubility of the compound in DMEM culture medium at >12.5 uM; type: physicochemical
[8] = tested on: MCF7; assay: Antiproliferative activity against human MCF7 cells up to 100 uM after 72 hrs by MTT assay relative to control; type: functional
[9] = biological target: T4, COX1 (Prostaglandin G/H synthase 1) (Ovis aries, UniProt P05979); assay: Inhibition of ovine COX1 assessed as reduction in PGF2alpha level at 100 uM using arachidonic acid as substrate preincubated for 10 mins followed by substrate addition by ELISA relative to control; details: sheep, ovine COX1 enzyme, probe arachidonic acid
T4 sequence (P05979 whole entry): T1 sequence (P05979 whole entry)

[10] = biological target: T3, Prostaglandin G/H synthase 2 (Homo sapiens); assay: Inhibition of human COX2 assessed as reduction in PGF2alpha level at 100 uM using arachidonic acid as substrate preincubated for 10 mins followed by substrate addition by ELISA relative to control
[11] = tested on: MCF7; assay: Antiproliferative activity against human MCF7 cells after 72 hrs by MTT assay; details: MCF7, 72 h

Structure (SMILES) | inhibition at 100 µM [9] | inhibition [10] | other results
O=[N+]([O-])c1ccc(/C=C/c2cc(O)c(O)c(O)c2)cc1 |  |  | IC50 [1]: 17.5 µM; IC50 [2]: 0.279 µM; Ratio IC50 [3]: 62.8; inhibition [4]: Dose-dependent effect; inhibition [5]: 24.1%; inhibition [6]: 33.9%; solubility [7]: Insoluble; Activity [8]: 30%
CC(=O)Oc1cccc(/C=C/c2ccc([N+](=O)[O-])cc2[N+](=O)[O-])c1 | 28.3% | 34.1% | 
CCOc1ccc(/C=C/c2ccc(Cl)cc2)cc1 | 39.2% | 12.3% | 
O=[N+]([O-])c1ccc(/C=C/c2ccc(O)cc2)cc1 | 22.2% | 37.1% | 
CCOc1ccc(/C=C/c2ccccc2)cc1 | 32.3% | 40.8% | 
Oc1ccc(/C=C/c2ccncc2)cc1 | 17.3% | 8.88% | 
CC(=O)Oc1ccc(/C=C/c2ccc(OC(C)=O)cc2)cc1 | 3.16% | 23.4% | 
CC(=O)Oc1ccc(/C=C/c2ccccc2)cc1 | 20.5% | 39.9% | 
COC(=O)COc1ccc(/C=C/c2ccc([N+](=O)[O-])cc2)cc1 | 59.6% | 66.3% | IC50 [1]: 40.8 µM; IC50 [2]: 7.46 µM; Ratio IC50 [3]: 4.13
O=[N+]([O-])c1ccc(/C=C/c2ccc(O)cc2)c([N+](=O)[O-])c1 | 6.09% | 29% | 
Oc1ccc(/C=C/c2cc[n+](Cc3ccccc3Cl)cc2)cc1 | 1.57% | 10.2% | 
CCOc1ccc(/C=C/c2ccc([N+](=O)[O-])cc2)cc1 | 54.6% | 77.4% | IC50 [1]: 85 µM; IC50 [2]: 4.02 µM; Ratio IC50 [3]: 21.2
CCOc1ccc(/C=C/c2ccc([N+](=O)[O-])cc2[N+](=O)[O-])cc1 | 14.1% | 40.4% | 
Oc1cccc(/C=C/c2ccncc2)c1 | 23.1% | 20.4% | 
COC(=O)COc1ccc(/C=C/c2ccc(Cl)cc2)cc1 | 59.3% | 71.8% | IC50 [1]: 41 µM; IC50 [2]: 7.52 µM; Ratio IC50 [3]: 5.45
Oc1ccc(/C=C/c2ccc(Cl)cc2)cc1 | 9.64% | 3.73% | 
COc1ccc(/C=C/c2ccc([N+](=O)[O-])cc2)cc1OC |  |  | IC50 [1]: 0.659 µM; IC50 [2]: 4.69 µM; Ratio IC50 [3]: 0.14
Oc1ccc(/C=C/c2cc[n+](Cc3ccc(Cl)cc3)cc2)cc1 | 15.7% | 5.38% | 
Cc1ccc(-c2cc(C(F)(F)F)nn2-c2ccc(S(N)(=O)=O)cc2)cc1 [CELECOXIB] |  |  | IC50 [11]: 49.7 µM
COC(=O)COc1ccc(/C=C/c2ccc(OCC(=O)OC)cc2)cc1 | 28.5% | 44.5% | 
Oc1ccc(/C=C/c2ccc(Br)cc2)cc1 | 6.8% | 14.3% | 
COc1cc(/C=C/c2ccc([N+](=O)[O-])cc2)cc(OC)c1OC |  |  | IC50 [1]: 2.67 µM; IC50 [2]: 2.17 µM; Ratio IC50 [3]: 1.23; Activity [8]: 30%
Oc1ccc(/C=C/c2cc[n+](Cc3cccc(Cl)c3)cc2)cc1 | 11.2% | 21.9% | 
CCOc1cccc(/C=C/c2ccc([N+](=O)[O-])cc2)c1 | 2.42% | 23.4% | 
O=[N+]([O-])c1ccc(/C=C/c2ccccc2)cc1 | 16.3% | 35% | 
CCOc1cccc(/C=C/c2ccc([N+](=O)[O-])cc2[N+](=O)[O-])c1 | 15.4% | 27.5% | 
Oc1ccc(/C=C/c2ccc(O)cc2)cc1 [TRANS-4,4'-DIHYDROXYSTILBENE] | 4.92% | 11.1% | 
O=[N+]([O-])c1ccc(/C=C/c2ccc(OCc3ccccc3)cc2)cc1 | 3.36% | 15.7% | 
Oc1ccccc1/C=C/c1ccncc1 | 9.71% | 8.56% | 
